Laboratory results from article PMC4503722, “Novel Phenotypic Outcomes Identified for a Public Collection of Approved Drugs from a Publicly Accessible Panel of Assays” (PLoS ONE, 2015).
Like-named read-outs stand apart in the source and are kept apart here.

Columns and labels:
Test in all cases: cells
Type in all cases: cell-based
Colo320 = settings: assay number 27; for IC50: read-out: Basal_Viability ATP Colo 320 summarized IC50
RKO = settings: assay number 29; for IC50: read-out: Basal_Viability ATP RKO summarized IC50
HeLa cells = tested on: HeLa cells;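 as to Hela CellCycMod PI 4N summarized IC50: value tracks stimulation of 4N DNA content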
SW480 = settings: assay number 24; for IC50: read-out: Basal_Viability ATP SW480 summarized IC50
DLD-1 = settings: assay number 23; for IC50: read-out: Basal_Viability ATP DLD-1 summarized IC50
SNU-C1 = settings: assay number 30; for IC50: read-out: Basal_Viability ATP SNU-C1 summarized IC50
[1] = tested on: HCT116 cells treated with a GSK3β inhibitor; settings: assay number 26, GSK3b inhibitor pretreated; for IC50: read-out: GSK3b inh pretreated_Viability ATP HCT116 summarized IC50
HT-29 = settings: assay number 28; for IC50: read-out: Basal_Viability ATP HT-29 summarized IC50
HCT116 = settings: assay number 25, basal; for IC50: read-out: Basal_Viability ATP HCT116 summarized IC50
[2] = assay number 14, 2N, read-out: Hela CellCycMod PI 2N summarized IC50
[3] = assay number 15, S phase, read-out: Hela CellCycMod PI S Phase summarized IC50
[4] = assay number 16, 4N, read-out: Hela CellCycMod PI 4N summarized IC50
[5] = assay number 17, MI, read-out: Hela CellCycMod PI MI summarized IC50
[6] = assay number 18, cell number, read-out: Hela CellCycMod PI Cell Number summarized IC50

Structure (SMILES) | IC50 (Colo320; basal) | IC50 (RKO; basal) | IC50 (HeLa cells; [2]) | IC50 (HeLa cells; [3]) | IC50 (HeLa cells; [4]) | IC50 (HeLa cells; [5]) | IC50 (SW480; basal) | IC50 (DLD-1; basal) | IC50 (SNU-C1; basal) | IC50 [1] | IC50 (HT-29; basal) | IC50 (HCT116) | Basal_Viability ATP Colo 320 IC50/EC50 (Colo320; basal) | Basal_Viability ATP RKO IC50/EC50 (RKO; basal) | Basal_Viability ATP SW480 IC50/EC50 (SW480; basal) | Basal_Viability ATP DLD-1 IC50/EC50 (DLD-1; basal) | Basal_Viability ATP SNU-C1 IC50/EC50 (SNU-C1; basal) | GSK3b inh pretreated_Viability ATP HCT116 IC50/EC50 [1] | Basal_Viability ATP HT-29 IC50/EC50 (HT-29; basal) | Basal_Viability ATP HCT116 IC50/EC50 (HCT116) | other results
O=C(O)CCc1nc2ccccc2[nH]1 [NCGC00013414-04] | > 20 µM | > 20000 nM | > 10 µM | > 10 µM | > 10 µM | > 10 µM | > 20 µM | 2.42 µM | > 20 µM | 2200 nM | > 20 µM | > 20 µM |  |  |  |  |  |  |  |  | IC50 (HeLa cells; [6]): > 10 µM
O=C(O)CN(CCN(CC(=O)O)CC(=O)O)CCN(CC(=O)O)CC(=O)O [NCGC00015360-08] | > 20 µM | 2960 nM | > 10 µM | > 10 µM | > 10 µM | > 10 µM | 3.14 µM | > 20 µM | > 20 µM | 896 nM | > 20 µM | > 6.67 µM |  |  |  |  |  |  |  |  | IC50 (HeLa cells; [6]): > 10 µM
CCCCOC(=O)c1ccc(N)cc1 [NCGC00016353-08] | > 20 µM | 137 nM | > 10 µM | > 10 µM | > 10 µM | > 10 µM | 0.586 µM | 4.56 µM | > 20 µM | 5610 nM | > 20 µM | > 20 µM |  |  |  |  |  |  |  |  | IC50 (HeLa cells; [6]): > 10 µM
CCC(=O)c1ccc(O)cc1 [NCGC00018097-06] | > 20 µM | 7800 nM | > 10 µM | > 10 µM | > 10 µM | > 10 µM | 4.1 µM | 6.67 µM | > 20 µM | 6250 nM | > 20 µM | > 20 µM |  |  |  |  |  |  |  |  | IC50 (HeLa cells; [6]): > 10 µM
CCC(COC(=O)c1cc(OC)c(OC)c(OC)c1)(c1ccccc1)N(C)C.O=C(O)/C=C\C(=O)O (centres unmarked) [NCGC00018269-05] |  |  |  |  |  |  |  |  |  |  |  |  | > 20 µM | 0.1424 µM | > 20 µM | > 20 µM | 2.4514 µM | 1.615 µM | > 20 µM | > 20 µM | Hela CellCycMod PI 2N IC50/EC50 (HeLa cells; assay number 14, 2N): > 10 µM; Hela CellCycMod PI S Phase IC50/EC50 (HeLa cells; assay number 15, S phase): > 10 µM; Hela CellCycMod PI 4N IC50/EC50 (HeLa cells; assay number 16, 4N): > 10 µM; Hela CellCycMod PI MI IC50/EC50 (HeLa cells; assay number 17, MI): > 10 µM; Hela CellCycMod PI Cell Number IC50/EC50 (HeLa cells; assay number 18, cell number): > 10 µM
CC[C@H]1CN2CCc3cc(OC)c(OC)cc3[C@@H]2C[C@@H]1C[C@H]1NCCc2cc(OC)c(OC)cc21 [NCGC00024379-16] |  |  |  |  |  |  |  |  |  |  |  |  | 0.0221 µM | 0.00831 µM | 0.001 µM | 0.01158 µM | 0.00228 µM | 0.001 µM | 0.01634 µM | 0.06147 µM | Hela CellCycMod PI 2N IC50/EC50 (HeLa cells; assay number 14, 2N): > 10 µM; Hela CellCycMod PI 4N IC50/EC50 (HeLa cells; assay number 16, 4N): > 10 µM; Hela CellCycMod PI MI IC50/EC50 (HeLa cells; assay number 17, MI): 0.9477 µM; Hela CellCycMod PI Cell Number IC50/EC50 (HeLa cells; assay number 18, cell number): 0.03266 µM
CN1CCC(Nc2ncc3ncnc(Nc4ccc(F)c(Cl)c4)c3n2)CC1 [NCGC00161422-04] |  |  |  |  |  |  |  |  |  |  |  |  |  |  |  |  |  | 3.384 µM |  | > 20 µM | Basal_Viability ATP Colo 320 IC50/EC50 (Colo320): 11.6683 µM; Basal_Viability ATP RKO IC50/EC50 (RKO): 3.167 µM; Hela CellCycMod PI 2N IC50/EC50 (HeLa cells; assay number 14, 2N): > 10 µM; Hela CellCycMod PI 4N IC50/EC50 (HeLa cells; assay number 16, 4N): > 10 µM; Hela CellCycMod PI MI IC50/EC50 (HeLa cells; assay number 17, MI): > 10 µM; Hela CellCycMod PI Cell Number IC50/EC50 (HeLa cells; assay number 18, cell number): > 10 µM; Basal_Viability ATP SW480 IC50/EC50 (SW480): 2.346 µM; Basal_Viability ATP DLD-1 IC50/EC50 (DLD-1): 2.292 µM; Basal_Viability ATP SNU-C1 IC50/EC50 (SNU-C1): 11.9566 µM; Basal_Viability ATP HT-29 IC50/EC50 (HT-29): 4.003 µM
COc1ccc(CN2CCN(C(c3ccc(F)cc3)c3ccc(F)cc3)CC2)c(OC)c1OC.Cl.Cl [NCGC00164543-02] |  |  |  |  |  |  |  |  |  |  |  |  |  |  |  |  |  | 2.7677 µM |  | 1.7018 µM | Basal_Viability ATP Colo 320 IC50/EC50 (Colo320): 2.817 µM; Basal_Viability ATP RKO IC50/EC50 (RKO): 3.6952 µM; Basal_Viability ATP SW480 IC50/EC50 (SW480): 3.3247 µM; Basal_Viability ATP DLD-1 IC50/EC50 (DLD-1): 3.1331 µM; Basal_Viability ATP SNU-C1 IC50/EC50 (SNU-C1): 0.4428 µM; Basal_Viability ATP HT-29 IC50/EC50 (HT-29): 2.926 µM
CCCCCCCCCCCCCCCCC(C(=O)O)C(O)(CC(=O)O)C(=O)O (centres unmarked) [NCGC00167547-02] |  |  |  |  |  |  |  |  |  |  |  |  | 1.3621 µM | 3.4822 µM | 1.1952 µM | 4.2832 µM | 1.3613 µM | 4.3382 µM | 4.0996 µM | 8.6847 µM | 
Cc1ccc(C(=O)c2cc(O)c(O)c([N+](=O)[O-])c2)cc1 [NCGC00181767-03] |  |  |  |  |  |  |  |  |  |  |  |  | 2.503 µM | 1.876 µM | 4.644 µM | 6.142 µM | 4.536 µM | 0.265 µM | > 20 µM | 2.292 µM | 
O=C(Nc1ccc(Cl)cc1)Nc1ccc(Cl)c(C(F)(F)F)c1 [NCGC00185743-02] | 0.003 µM | 3 nM |  |  |  |  | 0.009 µM | 0.027 µM | 0.009 µM | 3 nM | 0.001 µM | 0.003 µM |  |  |  |  |  |  |  |  | 
CN(C)[C@@H](CCOc1cccc2ccccc12)c1ccccc1 [NCGC00253658-01] |  |  |  |  |  |  |  |  |  |  |  |  |  |  |  |  |  | 9.8615 µM |  | > 20 µM | Basal_Viability ATP Colo 320 IC50/EC50 (Colo320): > 20 µM; Basal_Viability ATP RKO IC50/EC50 (RKO): 8.1098 µM; Basal_Viability ATP SW480 IC50/EC50 (SW480): > 20 µM; Basal_Viability ATP DLD-1 IC50/EC50 (DLD-1): > 20 µM; Basal_Viability ATP SNU-C1 IC50/EC50 (SNU-C1): 12.8035 µM; Basal_Viability ATP HT-29 IC50/EC50 (HT-29): > 20 µM
Cc1cc2nc3c(=O)[nH]c(=O)nc-3n(C[C@H](O)[C@H](O)[C@H](O)COP(=O)([O-])OP(=O)([O-])OC[C@H]3O[C@@H](n4cnc5c(N)ncnc54)[C@H](O)[C@H]3O)c2cc1C.O.[Na+].[Na+] [NCGC00344578-01] |  |  |  |  |  |  |  |  |  |  |  |  | > 20 µM | > 20 µM | > 20 µM | > 20 µM | > 20 µM | > 20 µM | > 20 µM | > 20 µM | 
